# From patent US20240197666A1, “DITERPENOID COMPOUNDS THAT ACT ON PROTEIN KINASE C (PKC)” (K-Gen Therapeutics, Inc., priority 2021, published 2024)
# Like-named read-outs stand apart in the source and are kept apart here.
# How the values were obtained:
# Panc2.13 tumors = test: Panc2.13 xenograft model, intra-tumoral injection; format: in vivo, mouse; settings: end of efficacy study, three mice per group, seven daily IT injections
# Protocol: Immunodeficient (athymic) Nu/Nu mice were implanted at one flank subcutaneously with Panc2.13 pancreatic cancer cells. […] All groups tolerated drug treatments very well. […] Scabs formed after 1-2 weeks and the skin recovered with minimal scaring after 3-4 weeks. Tumor growth/re-growth on or near the injection site was monitored for up to 55 days. […] Tumor growth inhibition is calculated by dividing the group average tumor volume for the treated group by the group average tumor volume for the control group (TIC). A one-way ANOVA was performed to compare tumor volume among groups, and when a significant F-statistics (a ratio of treatment variance to the error variance) was obtained, comparisons between groups were carried out with Games-Howell test. All data were analyzed using GraphPad 5.0. P<0.05 was considered to be statistically significant.
# A Mann-Whitney method was performed to analyze the tumor clearance rate comparing drug treated groups with the vehicle group at the end of the efficacy study. P<0.05 was considered to be statistically significant. Vehicle-injected tumors kept growing and there was no tumor clearance at the end point.
# C1b domain of human PKCα = biological target: T1, C1b domain of human PKCα (Homo sapiens, UniProt P17252); test: biochemical; format: binding; settings: 3H-PDBu competition
# T1 construct: Genes encoding C1b domains of human PKCα, δ, ε, θ, and PKD1 (PKCμ) were synthesized; made in house; host or cells: E. coli BL21(DE3)
# C1b domain of human PKCε = biological target: T2, C1b domain of human PKCε (Homo sapiens, UniProt Q02156); test: biochemical; format: binding; settings: 3H-PDBu competition
# T2 construct: Genes encoding C1b domains of human PKCα, δ, ε, θ, and PKD1 (PKCμ) were synthesized; made in house; host or cells: E. coli BL21(DE3)
# Summary of the method: (§1)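 GST-C1b (human, E. coli-expressed) + 3H-PDBu + compound; 37° C 10 min shaking, then ice 20 min. Filter capture, scintillation count. IC50 → Ki via Cheng-Prusoff, per-prep measured Kd.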
# A549 cell line = test: Proliferation of A549 (CellTiter Glo); format: cell-based; settings: read-out: IC50 μM (A549 Cell Line)
# Summary of the method: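 Compound effect on proliferation was read as CellTiter Glo luminescence after 96 h exposure to a 3-fold dilution series (≤0.25% DMSO). A549 cells, which carry activating K-Ras, were plated at 1,000/well one day before dosing. IC50, relative IC50 and maximal inhibition were fitted from % inhibition versus DMSO control.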
# Panc2.13 (Pancreatic) = test: Proliferation of Panc2.13; format: cell-based; settings: for IC50: read-out: IC50 Panc2.13 (Pancreatic)
# Protocol: (§2) The diterpenoid compounds were tested in A549, a non-small cell lung cancer cell line harboring a K-Ras activating mutation. Briefly, A549 cells at a density of 1,000 cells/well were seeded in 96-well plates and incubated at 37° C. for 24 hours. A series of different concentrations of compound stocks (500×) were prepared by 3-fold serial dilution in DMSO. These compounds were further diluted in culture media and then added to cells so that the final DMSO concentration was not exceeding 0.25%. After 96 hours of incubation, 50 μL of CellTiter Glo reagent (Promega) was added to each well and luminescence was measured after 10 minutes using EnVision (PerkinElmer). Luminescence from cells treated with DMSO alone was set as Max and % of inhibition was calculated as follows: Inhibition %=(Max-Sample value)/Max×100. Data was analyzed using XL-fit software (ID Business Solutions Ltd.) and IC50, relative IC50, and % of top inhibition was calculated. Some of the compounds in this disclosure were very potent in blocking proliferation of A549 lung cancer cells at low nM range. In addition, potency of inhibiting A549 proliferation correlated well with its binding affinity to PKCs for this series of compounds. In other words, higher affinity binders had stronger inhibitory effects on A549 proliferation. This further support the notion that activation, rather than inhibition, of certain PKC isoforms is required to block proliferation of cancer cells, some of which may harbor K-Ras mutations. This is in sharp contrast to previous literature and common belief that inhibition of PKC is necessary to block cancer cell growth (Kang, 2014, New Journal of Science, 2014:1-36). Data presented here is in agreement with recent findings that many loss-of-function but not gain-of-function mutations of PKC isoforms have been identified in many human cancers (Antal et al., 2015, Cell, 160:489-502).
# (§3) The compounds in this disclosure were tested for their potency in blocking proliferation of a few other cancer cells lines, including K-Ras mutant pancreatic cell lines Panc2.13 and KP-4, leukemia cell line HL-60, and lymphoma cell lines Namalwa and Mino. Similar procedures as in Example 67 were followed. Initial cell numbers seeded in 96-well plates were different for different cell lines: 3000 cells/well for Panc2.13; 800-1000 cells/well for KP-4; 5000 cells/well for HL-60; 5000-10000 cells/well for Namalwa and Mino. A ratio of (IC50 of K101)/(IC50 of compound) (data in parenthesis in Table 5) was used to normalize the compound potency from different assay batches to a common comparator K101.
# KP-4 (Pancreatic) = test: Proliferation of KP-4; format: cell-based; settings: read-out: IC50 KP-4 (Pancreatic)
# Protocol: as §2, §3
# HL-60 (Leukemia) = test: Proliferation of HL-60; format: cell-based
# Namalwa (Lymphoma) = test: Proliferation of Namalwa; format: cell-based; settings: for IC50: read-out: IC50 Namalwa (Lymphoma)
# Summary of the method: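 Proliferation was measured in the K-Ras mutant pancreatic lines and in HL-60 and Namalwa cells. These were plated at densities set per line and left 24 h before compound was added. After 96 h with serially diluted compound, viability was read by CellTiter Glo and IC50 derived.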
# Mino (Lymphoma) = test: Proliferation of Mino; format: cell-based; settings: for IC50: read-out: IC50 Mino (Lymphoma)
# Summary of the method: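 Luminescent ATP read-out (CellTiter Glo) after 96 h compound exposure gave % inhibition relative to DMSO-treated cells, from which IC50 was fitted. Seeding densities were line-specific, from 800 to 10000 cells/well. Potency across batches was normalised to reference compound K101.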
# [1] = system: NFκB-driven transcription in HeLa-NFκB luciferase reporter cell line; test: NFκB luciferase reporter assay
# C1b domain of human PKCδ = biological target: T3, C1b domain of human PKCδ (Homo sapiens, UniProt Q05655); test: biochemical; format: binding; settings: 3H-PDBu competition
# T3 construct: Genes encoding C1b domains of human PKCα, δ, ε, θ, and PKD1 (PKCμ) were synthesized; made in house; host or cells: E. coli BL21(DE3)
# Summary of the method: as §1
# C1b domain of human PKCθ = biological target: T4, C1b domain of human PKCθ (Homo sapiens, UniProt Q04759); test: biochemical; format: binding; settings: 3H-PDBu competition
# T4 construct: Genes encoding C1b domains of human PKCα, δ, ε, θ, and PKD1 (PKCμ) were synthesized; made in house; host or cells: E. coli BL21(DE3)
# T4 sequence (Q04759 231-281 limits assumed): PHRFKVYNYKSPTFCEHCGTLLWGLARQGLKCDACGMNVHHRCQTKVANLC
# Summary of the method: as §1
# [2] = biological target: T5, C1b domain of human PKD1 (PKCμ) (Homo sapiens, UniProt Q15139); test: Competitive 3H-PDBu binding assay, C1b domain of PKD1 (PKCμ); settings: 3H-PDBu competition
# T5 construct: Genes encoding C1b domains of human PKCα, δ, ε, θ, and PKD1 (PKCμ) were synthesized; made in house; host or cells: E. coli BL21(DE3)
# T5 sequence (Q15139 270-320 limits assumed): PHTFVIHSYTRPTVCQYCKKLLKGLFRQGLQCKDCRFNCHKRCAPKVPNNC
# Summary of the method: as §1
# [3] = system: phosphorylation of PKCμ, PKCδ and Erk1/2 in A549 lung cancer cells; test: Western blot of activation of PKC and downstream target protein in A549 cells; format: cell-based; settings: 3 μM, 30 minutes
# Protocol: According to the methods described in patent (WO/2017/083783) A549 lung cancer cells (˜3 million cells) were seeded in 10 cm tissue culture dishes (or ˜1 million cells in 6 cm dish) and grown overnight. Cells were then treated with different drugs at indicated concentrations for 30 minutes. Cell lysate preparation, protein quantitation, SDS-PAGE, and Western blotting procedures are described (WO/2017/083783). β-actin or Vinculin was used as loading controls. Imagequant LAS4000 (GE) was used to scan membranes if secondary antibodies anti-mouse IgG HRP conjugate or anti-rabbit IgG HRP conjugate (dilutions from 1:2000-1:10000) were used. For ProteinSimple Wes system, manufacture's procedure was followed (ProteinSimple 12-230 kDa Wes Separation Module) for sample preparation, loading, running, and data analysis.
# Phosphorylation of these sites has been linked to acute activation or catalytic activity of the PKC isoforms and Erk1/2. High level of phosphorylation indicates strong activation.
# A subset of the diterpenoid compounds with good binding affinity to novel PKC isoforms and PKCμ was tested at two different concentrations in A549 cells to assess activation of PKCμ, PKCδ, and Erk1/2 by Western blot analysis. In addition to the phospho-specific antibodies described above, an additional phospho-specific antibody P-PKCδ (S299) (Abcam cat #133456) was also used. This antibody has been shown in the literature (Durgan et al., FEBS Lett. 2007, 581(18):3377-81, Novel phosphorylation site markers of protein kinase C delta activation) to be able to detect activation of PKCδ. K-101 (prostratin, 1 μM) was included as reference compounds.
# T2 sequence (Q02156 242-292 limits assumed): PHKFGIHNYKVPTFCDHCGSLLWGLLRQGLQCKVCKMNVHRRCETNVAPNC
# T3 sequence (Q05655 230-280 limits assumed): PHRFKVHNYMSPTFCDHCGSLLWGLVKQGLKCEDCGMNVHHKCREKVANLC
Structure (SMILES),Ki (C1b domain of human PKCα) [nM],Ki (C1b domain of human PKCε) [nM],ratio (IC50 of K101)/(IC50 of compound) Panc2.13 (Panc2.13 (Pancreatic)),IC50 (Panc2.13 (Pancreatic)) [nM],IC50 (KP-4 (Pancreatic)) [nM],ratio (IC50 of K101)/(IC50 of compound) HL-60 (HL-60 (Leukemia)),ratio (IC50 of K101)/(IC50 of compound) Namalwa (Namalwa (Lymphoma)),IC50 (Namalwa (Lymphoma)) [nM],ratio (IC50 of K101)/(IC50 of compound) Mino (Mino (Lymphoma)),other results
CC1=C[C@H]2[C@@]3(O)[C@H](C)C[C@]4(OC(=O)[C@H](N)CCCCCCc5ccccc5)[C@H]([C@@H]3C=C(CO)C[C@]2(O)C1=O)C4(C)C [Compound K101-K134801],,,,,,,,,,tumor clearance (Panc2.13 tumors): complete clearance of tumors
CC/C=C\C/C=C\C/C=C\C/C=C\C/C=C\C/C=C\CCC(=O)O[C@@]12C[C@@H](C)[C@@]3(O)[C@@H](C=C(CO)C[C@]4(O)C(=O)C(C)=C[C@@H]34)[C@@H]1C2(C)C,60 to 100,10 to 30,157,1 to 10,1 to 10,80,20.9,1 to 10,82.5,"IC50 (A549 cell line; Homo sapiens, A549, 96 h): 0.001 to 0.01 µM; IC50 (HL-60 (Leukemia); Homo sapiens, HL-60, read-out: IC50 HL-60 (Leukemia)): 1 to 10 nM; IC50 (Mino (Lymphoma); Homo sapiens, MINO): < 1 nM; EC50 ([1]; Homo sapiens, HeLa, 16 h, read-out: NFκB-luc HeLa cells EC50 (μM)): 0.001 to 0.01 µM"
CC1=C[C@H]2[C@@]3(O)[C@H](C)C[C@]4(OC(=O)[C@@H](N)Cc5ccccc5)[C@H]([C@@H]3C=C(CO)C[C@]2(O)C1=O)C4(C)C,400 to 800,100 to 200,0.75,1000 to 2000,600 to 1000,0.9,0.19,200 to 600,0.57,"Ki (C1b domain of human PKCδ): 30 to 60 nM; Ki (C1b domain of human PKCθ): 30 to 60 nM; Ki [2]: 10 to 30 nM; phosphorylation of PKCμ, PKCδ and Erk1/2 [3]: induced phosphorylation; IC50 (A549 cell line; 96 hours, CellTiter Glo): 0.6 to 1 µM; IC50 (HL-60 (Leukemia); read-out: IC50 HL-60 (Leukemia)): 200 to 600 nM; IC50 (Mino (Lymphoma)): 100 to 200 nM; EC50 ([1]; read-out: NFκB-luc HeLa cells EC50, 16h): 0.2 to 0.6 µM"
